Several values for one entry are separate records, joined by “and”; a condition that tells them apart may be missing. Equal entries are not always repeated.
Legend:
[1] = system: healthy premenopausal women; assay: Example 4: safety and tolerability; assay type: in vivo, human; conditions: single doses up to 80 mg, up to 40 mg QD for 14 days
Description: The study was a phase 1, double-blind, randomized, placebo-controlled, sequential-panel, ascending single- and multiple-dose study in healthy premenopausal women. Ten groups, each of 12 healthy premenopausal, adult women, participated in the study (Cohorts 1 to 10).
Serum chemistry, hematology, urinalysis, vital signs, and ECGs were monitored during the study up to 1 week after the last dose. There were no meaningful changes in these parameters in the Compound 1 dose groups compared with placebo. QT and corrected QT interval (QTc) intervals >450 msec and […] were seen across all dose groups, including the placebo group.

[2] = Example 5A: plasma concentrations, population PK; assay type: in vivo, human
Procedure: At Visit 3, blood was drawn twice, at 0.5 to 1.5 hours postdose and at 2 to 5 hours postdose, from each evaluable subject. At Visits 4, 5 and 6, blood was drawn once immediately prior to the dose for each day, and again at 0.5 to 1.5 hours postdose and at 2 to 5 hours postdose, from each evaluable subject. Blood was drawn only once for patients who took the study drug for the day before visiting the investigational site. At Visit 7, blood was drawn only once at the visit.

[3] = Example 9 6-week phase 1 study with or without E2/NETA: pharmacokinetics; assay type: in vivo; conditions: female, human, plasma, 40 mg; for half-life: plasma Compound 1 t1/2, mean (SD); for Tmax: plasma Compound 1 tmax, median (min, max)
Description: Methods: This was a 6-week phase 1, randomized, open-label, parallel-group, study conducted at 4 sites in the US. […] The first day of dosing occurred on Day 1 to 6 of the menstrual cycle. Hormonal preparations were prohibited for at least 3 months prior to screening. […] Vasomotor symptoms were captured using a daily diary (from screening until follow-up).

FIG. 5B = assay: FIG. 5B
Description: Table printed on a drawing sheet, FIG. 5B
The patent's description of the figure: FIGS. 5A-C are tables of plasma pharmacokinetic (PK) parameters for Cohorts 1 to 6 in accordance with Example 4.
First reader's note: Plasma PK parameters by dose cohort; the series starts in FIG. 5A on another sheet and continues in FIG. 5C.

FIG. 7B = assay: FIG. 7B
Description: Table printed on a drawing sheet, FIG. 7B
(§1) The patent's description of the figure: FIGS. 7A-F are tables of plasma PK parameters for Cohorts 8 to 10 in accordance with Example 4.
First reader's note: Each column is a dose group; per the description these are Day 1 plasma PK values for Cohorts 8 to 10.

FIG. 7E = assay: FIG. 7E
Description: Table printed on a drawing sheet, FIG. 7E
as §1
First reader's note: Each column is a dose group; according to the description these are plasma PK parameters on Day 14 (Cohorts 8 to 10).

FIG. 10 = assay: FIG. 10
Procedure: Table printed on a drawing sheet, FIG. 10
The patent's description of the figure: FIG. 10 is a table of urine PK parameters for Cohort 7 in accordance with Example 4.
First reader's note: Urine PK parameters for Cohort 7 (fed vs fasted, 40 mg); each column is a dosing arm and the rows give summary statistics per parameter.

FIG. 12 = assay: FIG. 12
Description: Table printed on a drawing sheet, FIG. 12
The patent's description of the figure: FIG. 12 is a table of urine PK parameters for Cohorts 8 to 10 on Day 1 of the treatment period in accordance with Example 4.
First reader's note: Per the description these are urine PK parameters for Cohorts 8 to 10 on Day 1; each column is one dose group.

FIG. 13 = assay: FIG. 13
Description: Table printed on a drawing sheet, FIG. 13
The patent's description of the figure: FIG. 13 is a table of urine PK parameters for Cohorts 8 to 10 on Day 14 of the treatment period in accordance with Example 4.
First reader's note: Per the description these are urine PK parameters for Cohorts 8 to 10 on Day 14; each column is one dose group.

For CONC(=O)Nc1ccc(-c2sc3c(c2CN(C)C)c(=O)n(-c2ccc(OC)nn2)c(=O)n3Cc2c(F)cccc2F)cc1 [Compound 1, N-(4-(1-(2,6-difluorobenzyl)-5-((dimethylamino)methyl)-3-(6-methoxy-3-pyridazinyl)-2,4-dioxo-1,2,3,4-tetrahydrothieno[2,3-d]pyrimidin-6-yl)phenyl)-N′-methoxyurea], the safety and tolerability [1] was “safe and well tolerated”, the increase in relative bioavailability, 40 mg vs 10 mg ([2]; human, plasma, oral, population PK, read-out: relative bioavailability higher in 40-mg compared with 10-mg) was 30.9% and the “absorption rate constant (ka)” value ([2]; population estimate) was 0.416 h⁻¹. The “apparent oral clearance (CL/F)” value ([2]; population estimate) was 198 L/h, the AUC(0-t) ([3]; Compound 1 AUC0-24, geometric mean (CV%), Week 6) was 116 ng·h/mL and the Cmax ([3]; Compound 1 Cmax, geometric mean (CV%), Week 6) was 17.6 ng/mL. It also gave an AUC(0-t) ([3]; plasma Compound 1 AUC0-24, mean (SD), Week 3) of 133 ng·h/mL, an AUC(0-t) ([3]; plasma Compound 1 AUC0-24, mean (SD), Week 6) of 125 ng·h/mL and a concentration at 3 week ([3]; plasma Compound 1 Cavg, mean (SD), Week 3) of 5.53 ng/mL. It also gave a concentration at 6 week ([3]; plasma Compound 1 Cavg, mean (SD), Week 6) of 5.2 ng/mL, a Cmax ([3]; plasma Compound 1 Cmax, mean (SD), Week 3) of 21.8 ng/mL and a Cmax ([3]; plasma Compound 1 Cmax, mean (SD), Week 6) of 19.5 ng/mL. The concentration at 3 week ([3]; plasma Compound 1 Ctrough, mean (SD), Week 3) was 2.57 ng/mL, the concentration at 6 week ([3]; plasma Compound 1 Ctrough, mean (SD), Week 6) was 2.45 ng/mL and the half-life ([3]; Week 3) was 1000 min. The half-life ([3]; Week 6) was 1030 min, the Tmax ([3]; Week 3) was 2.02 h and the Tmax ([3]; Week 6) was 2 h. For the same compound, the “Tmax (hr) | Median” value (FIG. 5B) was 0.775 h and 1.015 h and 1.500 h, the “CL/F (L/hr) | Mean” value (FIG. 7B) was 959.7 L/h and 697.6 L/h and the “Tmax (hr) | Median” value (FIG. 7B) was 1.480 h. For the same compound, the “CL/F (L/hr) | Mean” value (FIG. 7E) was 569.7 L/h and 436.3 L/h and 373.4 L/h, the “Vz/F (L) | Mean” value (FIG. 7E) was 5041.8 L and 3618.3 L and 3086.5 L and the “CLr (L/hr) | Mean” value (FIG. 10) was 6.1047 L/h and 6.7583 L/h. For the same compound, the “Fe (%) | Mean” value (FIG. 10) was 0.919% and 1.963%, the “CLr (L/hr) | Mean” value (FIG. 12) was 7.1595 L/h and 6.7303 L/h and 7.7148 L/h and the “Fe (%) | Mean” value (FIG. 12) was 0.639% and 0.938% and 1.209%. The “Ae (0-24) (ng) | Median” value (FIG. 13) was 141057.00 ng, the “CLr (L/hr) | Mean” value (FIG. 13) was 6.4821 L/h and 6.7992 L/h and 6.8776 L/h and the “Fe (%) | Mean” value (FIG. 13) was 1.335% and 1.930% and 1.955%.

From patent US11957684B2, “Treatment of heavy menstrual bleeding associated with uterine fibroids” (Sumitomo Pharma Switzerland GmbH, priority 2016, dated 2024)
